Laboratory results: paper PMC11311998, “AR71, Histamine H3 Receptor Ligand—In Vitro and In Vivo Evaluation (Anti-Inflammatory Activity, Metabolic Stability, Toxicity, and Analgesic Action)” (International Journal of Molecular Sciences, 2024)

How the values were obtained:
[1] = test system: rat models of neuropathic pain; set-up: method as in PMID 18164820; settings: surgically or virus-induced; cited from earlier work
SH-SY5Y cells [2] = type: cell-based, human; settings: rotenone alone 6.25 μM, 24 h
Method: To test neuroprotective activity, SH-SY5Y cells were pre-treated for 1 h with various concentrations of AR71, after which rotenone (6.25 μM) was added and the cells were cultured for another 24 h. […] Co-treatment with AR71 protected cells from the toxic effect of rotenone, resulting in LDH leakage ranging from 10 to 22% only.
The protective effect of AR71 against rotenone-induced toxicity in SH-SY5Y cells was assessed by measuring LDH release. SH-SY5Y cells (6 × 10^3 cells/100 μL/well) were seeded in black 96-well plates Nunclon^TM Delta Surface no. 137101 (ThermoFischer Scientific, Waltham, MA, USA) and cultured overnight. The next day, the medium was removed and replaced with a fresh one with an increasing concentration of AR71 (0.0975–50 μM). After 1 h of compound pre-treatment, the neurotoxin rotenone (6.25 μM) was added, and the cells were cultured for another 24 h. For the negative and positive controls, cells were treated with 0.1% DMSO and 6.25 μM of rotenone alone, respectively. The cells treated with the compound alone were used to compare the effect with those co-treated with rotenone. After 24 h, the level of LDH leakage was measured by the CytoTox-ONE™ Homogeneous Membrane Integrity Assay (Promega, Madison, WI, USA) following the manufacturer’s protocol. Briefly, 100 μL of CytoTox-ONE™ reagent (Promega, Madison, WI, USA) was added to each well, and the cells were incubated for 10 min at room temperature protected from light. The fluorescence was measured using the multimode plate reader Tecan Spark (Tecan, Männedorf, Switzerland) with an excitation wavelength of 560 nm and an emission wavelength of 590 nm.

SH-SY5Y cells [3] = test: mitochondrial membrane potential (JC-10); type: cell-based, human; settings: 50 μM, 3 h
Method: Neurotoxin-like rotenone induces oxidative stress inside cells that might influence mitochondrial membrane potential (MMP). Maintaining unaffected MMP is essential for neuroprotection. In our study, we tested the effect of AR71 on MMP in the presence and absence of rotenone.
Next, the effect of AR71 (0.78 μM) when co-treated with rotenone was tested; 1 μM carbonyl cyanide m-chlorophenylhydrazone (CCCP) was used as a positive control.
The MMP was measured by a commercially available kit (Sigma Aldrich, MAK159, for live cells) that utilises a cationic, lipophilic dye JC-10. It allows for ratiometric analysis of mitochondrial membrane potential, where a shift from orange (λEX/λEM: 540 nm/590 nm) to green fluorescence (λEX/λEM: 490 nm/525 nm) is indicative of compromised mitochondria. For this assay, the SH-SY5Y cells (1 × 10^4 cells/well) were seeded in a black-sided clear bottom 96-well plate (Thermo Scientific Nunclon^TM Delta Surface no. 137101, Denmark) in a complete culture medium. First, to choose the optimal concentration of rotenone in this assay, a dose–response effect of rotenone (0.05, 0.5, 5, 50 μM) was studied. Next, the cells were pre-treated with AR71 (0.78 μM) for 1 h before rotenone stimulation (50 μM) for another 3 h. […] The positive control was carbonyl cyanide m-chlorophenylhydrazone (CCCP; 1 μM)—uncoupling agent on the proton gradient. After incubation, 50 μL/well of the JC-10 dye loading solution was added to each well with cells. The plate was incubated for 45 min in the incubator. Then, 50 μL/well of Assay Buffer B was added to each well, and the fluorescence was monitored immediately. The red/green fluorescence intensity ratio was used to calculate the results.

SMILES | efficacy in rat models of neuropathic pain [1] | LDH leakage vs control cells (SH-SY5Y cells [2]) | reduction of MMP compared with control cells (SH-SY5Y cells [3])
CNC(=O)c1ccc(Oc2ccc3c(c2)CCN(C2CCC2)CC3)nc1 [GSK189254] | effective | – | –
CC(C)N1CCCN(C(=O)C2CCN(c3ccc(C(F)(F)F)nc3)CC2)CC1 [GSK334429] | effective | – | –
C=C(C)[C@H]1Cc2c(ccc3c2O[C@@H]2COc4cc(OC)c(OC)cc4[C@@H]2C3=O)O1 [rotenone, reference compound] | – | twice as much LDH leakage as control cells | 67%
